# From US9265738B2, “Small molecule CMKLR1 antagonists in demyelinating disease” (The Board of Trustees of the Leland Stanford Junior …, priority 2012, dated 2016)
# How the values were obtained:
# mouse CMKLR1 = molecular target: T1, mouse CMKLR1 (Mus musculus, UniProt P97468); test: Inhibition of chemerin-triggered mouse CMKLR1/L1.2 cell migration; type: cell-based; conditions: 1 nM chemerin
# T1 construct: expressed in transfected cells; host or cells: L1.2 cells
# T1 sequence (P97468 1-371): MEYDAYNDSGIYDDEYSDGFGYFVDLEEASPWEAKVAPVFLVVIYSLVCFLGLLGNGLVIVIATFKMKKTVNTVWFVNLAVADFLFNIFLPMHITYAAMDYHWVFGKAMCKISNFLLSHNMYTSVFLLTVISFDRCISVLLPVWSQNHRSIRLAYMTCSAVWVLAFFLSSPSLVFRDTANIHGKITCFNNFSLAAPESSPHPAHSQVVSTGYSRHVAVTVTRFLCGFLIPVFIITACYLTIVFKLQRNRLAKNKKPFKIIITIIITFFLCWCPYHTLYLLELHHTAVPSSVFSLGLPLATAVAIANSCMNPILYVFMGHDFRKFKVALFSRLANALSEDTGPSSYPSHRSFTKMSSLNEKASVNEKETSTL
# Experimental: 2-(alpha-Naphthoyl)ethyltrimethyl ammonium iodide (aNETA) was tested for inhibition of chemerin-triggered mouse CMKLR1/L1.2 cell migration. mCMKLR1/L1.2 ctx and 1 nM chemerin were used. The assay was performed in 0.5% BSA, buffer (10% FBS), or 100% human serum.
# CXCR4 [1] = molecular target: T2, CXCR4 (Homo sapiens, UniProt P61073); test: CXCR4-dependent MOLT-4 migration to CXCL12; type: cell-based; conditions: MOLT4 human T-cell line; 1 nM CXCL12
# T2 construct: endogenous in cells; host or cells: MOLT-4 (human T-cell line)
# Experimental: MOLT4 cell ctx (human T-cell line) and 1 nM CXCL12 were used.
# CCR9 = molecular target: T3, CCR9 (Homo sapiens, UniProt P51686); test: CCR9-dependent MOLT-4 migration to CCL25; type: cell-based; conditions: MOLT4 human T-cell line; 250 nM TECK
# T3 construct: endogenous in cells; host or cells: MOLT-4 (human T-cell line)
# T3 sequence (P51686 1-369): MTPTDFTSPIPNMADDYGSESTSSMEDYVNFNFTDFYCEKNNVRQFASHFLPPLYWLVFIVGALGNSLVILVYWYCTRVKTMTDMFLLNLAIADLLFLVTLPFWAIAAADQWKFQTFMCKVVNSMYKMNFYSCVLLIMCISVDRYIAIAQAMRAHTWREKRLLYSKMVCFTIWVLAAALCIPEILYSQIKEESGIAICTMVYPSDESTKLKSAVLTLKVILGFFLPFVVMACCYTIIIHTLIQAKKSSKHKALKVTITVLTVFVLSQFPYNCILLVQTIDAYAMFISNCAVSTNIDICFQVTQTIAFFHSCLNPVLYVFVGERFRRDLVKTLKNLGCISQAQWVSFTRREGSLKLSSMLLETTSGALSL
# Experimental: MOLT4 cell ctx (human T-cell line) and 250 nM TECK were used.
# CXCR4 [2] = molecular target: T4, CXCR4 (Mus musculus, UniProt P70658); test: CXCR4-dependent mouse splenocyte migration to CXCL12; type: cell-based; conditions: 100 nM CXCL12
# T4 construct: endogenous in cells; host or cells: mouse splenocytes
# Experimental: Splenocyte ctx and 100 nM CXCL12 were used.
# CCR7 = molecular target: T5, CCR7 (Mus musculus, UniProt P47774); test: CCR7-dependent mouse splenocyte migration to CCL19; type: cell-based; conditions: 100 nM CCL19
# T5 construct: endogenous in cells; host or cells: mouse splenocytes
# T5 sequence (P47774 25-378): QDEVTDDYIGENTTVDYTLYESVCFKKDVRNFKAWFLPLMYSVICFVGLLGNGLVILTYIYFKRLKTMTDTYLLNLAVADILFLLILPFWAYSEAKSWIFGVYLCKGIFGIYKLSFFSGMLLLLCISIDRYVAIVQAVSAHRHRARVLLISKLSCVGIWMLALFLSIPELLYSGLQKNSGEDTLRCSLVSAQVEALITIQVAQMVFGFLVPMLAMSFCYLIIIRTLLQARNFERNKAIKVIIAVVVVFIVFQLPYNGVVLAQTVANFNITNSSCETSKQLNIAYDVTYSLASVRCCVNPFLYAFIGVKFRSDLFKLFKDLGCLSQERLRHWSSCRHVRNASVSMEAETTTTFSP
# Experimental: Splenocyte ctx and 100 nM CCL19 were used.
# FPR = molecular target: T6, FPR (Mus musculus, UniProt P33766); test: FPR-dependent mouse BM neutrophil chemotaxis to fMLP; type: cell-based; conditions: 100 nM fMLP
# T6 construct: endogenous in cells; host or cells: mouse bone-marrow neutrophils
# T6 sequence (P33766 1-364): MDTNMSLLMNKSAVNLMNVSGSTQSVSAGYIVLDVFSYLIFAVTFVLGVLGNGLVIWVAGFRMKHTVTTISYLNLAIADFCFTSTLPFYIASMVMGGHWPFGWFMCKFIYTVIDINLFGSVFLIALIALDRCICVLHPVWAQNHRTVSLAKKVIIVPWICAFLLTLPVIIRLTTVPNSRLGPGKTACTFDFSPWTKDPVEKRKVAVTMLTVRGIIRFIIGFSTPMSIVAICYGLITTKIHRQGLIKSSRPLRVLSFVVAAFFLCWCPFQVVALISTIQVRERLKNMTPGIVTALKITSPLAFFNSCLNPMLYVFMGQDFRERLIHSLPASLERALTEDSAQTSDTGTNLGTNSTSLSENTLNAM
# Experimental: Neutrophil ctx and 100 nM fMLP were used.
# C5aR = molecular target: T7, C5aR (Mus musculus, UniProt P30993); test: C5aR-dependent mouse BM neutrophil chemotaxis to C5a; type: cell-based; conditions: 100 nM C5a
# T7 construct: endogenous in cells; host or cells: mouse bone-marrow neutrophils
# T7 sequence (P30993 1-351): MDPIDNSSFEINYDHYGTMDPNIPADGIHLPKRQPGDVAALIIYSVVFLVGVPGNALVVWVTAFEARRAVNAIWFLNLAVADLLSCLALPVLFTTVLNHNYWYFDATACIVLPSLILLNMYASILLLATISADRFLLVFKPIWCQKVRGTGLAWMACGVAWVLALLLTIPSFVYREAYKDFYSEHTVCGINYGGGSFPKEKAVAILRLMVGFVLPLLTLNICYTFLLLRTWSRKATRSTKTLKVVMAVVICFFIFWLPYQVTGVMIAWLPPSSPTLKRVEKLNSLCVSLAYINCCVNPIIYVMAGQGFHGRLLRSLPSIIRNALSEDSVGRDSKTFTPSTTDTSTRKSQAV
# Experimental: Neutrophil ctx and 100 nM C5a were used.
# [3] = test system: huCMKLR1/βARR CHO, huCMKLR1/L1.2 cell lines and splenocytes; test: In vitro cytotoxicity, annexin V FITC / propidium iodide assay; type: cell-based; conditions: 90 minute incubation at 37° C., huCMKLR1/L1.2, splenocytes
# Experimental: The in vitro cytotoxicity of aNETA can be determined with an annexin V FITC assay kit. […] The analysis can be performed with a FITC-conjugated annexin-V, which has a strong affinity for extracellular phosphatidylserines, and the fluorescent intercalating agent propidium iodide (PI).
# With reference to FIG. 11, cell lines (huCMKLR1/βARR CHO and huCMKLR1/L1.2) and splenocytes were used. aNETA was tested with 90 minute incubation at 37° C.
# [4] = test system: experimental autoimmune encephalomyelitis (EAE); test: Clinical EAE in vivo (MOG 35-55 induced); conditions: mouse; for Onset of EAE / Animals that developed EAE (disease incidence): subcutaneous; for Onset of EAE: 10% captisol
# [5] = test system: leukocyte infiltration of CNS in EAE; test: Leukocyte infiltration of CNS in EAE; type: in vivo, mouse; conditions: EAE mice
# huCMKLR1 [6] = molecular target: T8, huCMKLR1 (Homo sapiens, UniProt Q99788); test: Inhibition of chemerin-triggered huCMKLR1 association with beta-arrestin2 (PathHunter CHO-K1 enzyme fragment complementation); type: cell-based; set-up: host or cells: CHO-K1
# T8 sequence (Q99788 1-373): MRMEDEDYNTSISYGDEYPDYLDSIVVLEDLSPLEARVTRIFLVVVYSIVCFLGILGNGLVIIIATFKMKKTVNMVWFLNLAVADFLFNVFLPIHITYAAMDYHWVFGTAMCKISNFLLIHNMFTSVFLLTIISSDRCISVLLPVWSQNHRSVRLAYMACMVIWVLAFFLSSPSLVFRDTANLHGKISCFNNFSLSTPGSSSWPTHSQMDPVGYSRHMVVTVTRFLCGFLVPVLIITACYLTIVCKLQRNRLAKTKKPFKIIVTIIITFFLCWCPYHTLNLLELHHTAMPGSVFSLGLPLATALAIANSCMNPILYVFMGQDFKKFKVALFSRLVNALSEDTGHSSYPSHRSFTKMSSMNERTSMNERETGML
# From the text: With reference to FIG. 1, early event in receptor internalization is ligand-triggered association with beta-arrestin2. This process turns off receptor signaling. Enzyme complementation can be used to measure CMKLR1 association with beta-arrestin2. In this assay β-Galactosidase is split into two complementary enzyme fragments, one is attached to CMKLR1, the other to beta-arrestin2. If ligand interaction with CMKLR1 promotes its association with β-arrestin2, the enzyme fragments join and become active. An assay, such as PathHunter® CHO-K1 CMKLR1 β-Arrestin GPCR Assays (DiscoverX, Inc., Fremont, Calif.) can provide a method for monitoring activation of the CMKLR1 GPCR receptor through arrestin recruitment in live cells. CMKLR1 cells are engineered to co-express a ProLink (PK)-tagged GPCR and the Enzyme Acceptor (EA)-tagged β-Arrestin fusion proteins. Upon GPCR activation, the two enzyme fragments are brought together, forming an active β-Gal enzyme through Enzyme Fragment Complementation (EFC). A LOPAC (Library of Pharmacologically Active Compounds) library (Sigma-Aldrich, St. Louis, Mo.) was screened for inhibition of chemerin-triggered […]1 association with βARR. Three hits were obtained from a primary screen of LOPAC library. […] The assay was performed in both buffer (10% FBS) or 100% human serum.
# huCMKLR1 [7] = molecular target: T8, huCMKLR1; test: Inhibition of chemerin-triggered human CMKLR1/L1.2 cell migration; type: cell-based; set-up: expressed in transfected cells; host or cells: L1.2 cells; conditions: 1 nM chemerin
# Experimental: 2-(alpha-Naphthoyl)ethyltrimethyl ammonium iodide (aNETA) was tested for inhibition of chemerin-triggered human CMKLR1/L1.2 cell migration. huCMKLR1/L1.2 ctx and 1 nM chemerin were used. The assay was performed in 0.5% BSA, buffer (10% FBS), or 100% human serum.
# T2 sequence (P61073 whole entry): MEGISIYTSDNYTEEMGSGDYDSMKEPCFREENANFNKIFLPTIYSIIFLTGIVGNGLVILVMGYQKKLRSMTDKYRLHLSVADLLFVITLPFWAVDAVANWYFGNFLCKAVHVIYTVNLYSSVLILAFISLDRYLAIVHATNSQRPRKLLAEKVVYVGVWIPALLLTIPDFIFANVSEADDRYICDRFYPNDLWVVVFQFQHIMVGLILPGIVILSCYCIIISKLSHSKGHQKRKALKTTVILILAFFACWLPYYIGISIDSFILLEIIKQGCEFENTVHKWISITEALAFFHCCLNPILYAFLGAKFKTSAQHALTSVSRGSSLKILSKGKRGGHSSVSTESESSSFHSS
# T4 sequence (P70658 whole entry): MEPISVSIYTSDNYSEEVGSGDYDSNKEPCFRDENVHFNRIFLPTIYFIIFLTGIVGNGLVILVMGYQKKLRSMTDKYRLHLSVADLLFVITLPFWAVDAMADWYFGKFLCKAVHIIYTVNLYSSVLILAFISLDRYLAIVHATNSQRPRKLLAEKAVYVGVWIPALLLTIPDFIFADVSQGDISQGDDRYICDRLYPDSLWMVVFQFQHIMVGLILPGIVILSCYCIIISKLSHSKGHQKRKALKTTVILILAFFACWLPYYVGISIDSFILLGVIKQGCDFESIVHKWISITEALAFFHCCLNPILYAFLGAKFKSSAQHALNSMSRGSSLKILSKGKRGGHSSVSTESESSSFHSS
structure (smiles),measurement,setting,value
"C[N+](C)(C)CCC(=O)c1cccc2ccccc12.[I-] [aNETA, 2-(alpha-naphthoyl)ethyltrimethyl ammonium iodide]",IC50,mouse CMKLR1; 0.5% BSA,9600 nM
same,IC50,mouse CMKLR1; 100% human serum,1200 nM
same,IC50,mouse CMKLR1; buffer (10% FBS),1100 nM
same,Inhibition of CXCR4-dependent MOLT-4 migration to CXCL12,CXCR4 [1],does not inhibit
same,Inhibition of CCR9-dependent MOLT-4 migration to CCL25,CCR9,does not inhibit
same,Inhibition of CXCR4-dependent mouse splenocyte migration to CXCL12,CXCR4 [2],does not inhibit
same,Inhibition of CCR7-dependent mouse splenocyte migration to CCL19,CCR7,does not inhibit
same,Inhibition of FPR-dependent mouse BM neutrophil chemotaxis to fMLP,FPR,does not inhibit
same,Inhibition of C5aR-dependent mouse BM neutrophil chemotaxis to C5a,C5aR,does not inhibit
same,In vitro cytotoxicity (annexin V / PI),[3],does not appear to be acutely toxic
same,Onset of EAE,[4]; 1 mg/kg daily,17.8 days post-immunization
same,Animals that developed EAE (disease incidence),"[4]; 3 mg/kg daily, 3/16",19%
same,Onset of EAE,[4]; 10 mg/kg daily,26 days post-immunization
same,Animals that developed EAE (disease incidence),"[4]; 10 mg/kg daily, 1/16",7%
same,Effect on onset of EAE,"[4]; 10 mg/kg s.c. daily for 8 days, then every other day",significantly delayed
same,Leukocyte infiltration of the CNS compared to vehicle,[5]; daily 10 mg/kg,fewer leukocytes present
same,Leukocytes in the spleen compared to vehicle,[5]; daily 10 mg/kg and 3 mg/mg,more leukocytes present
same,IC50,"huCMKLR1 [6]; 100% human serum, huCMKLR1/βARR CHO cells, 7 nM chemerin, read-out: IC50, inhibition of chemerin-triggered huCMKLR1 association with βARR",620 nM
same,IC50,"huCMKLR1 [6]; buffer (10% FBS), huCMKLR1/βARR CHO cells, 7 nM chemerin, read-out: IC50, inhibition of chemerin-triggered huCMKLR1 association with βARR",350 nM
same,IC50,"huCMKLR1 [6]; in vitro cell-based bioassay, read-out: IC50, inhibition of chemerin mediated beta-arrestin2 association with CMKLR1",~350 nM
same,IC50,huCMKLR1 [7]; 0.5% BSA,1200 nM
same,IC50,huCMKLR1 [7]; 100% human serum,1300 nM
same,IC50,huCMKLR1 [7]; buffer (10% FBS),1200 nM
